The record followed here is US10653658B2, “Biofilm inhibiting compositions enhancing weight gain in livestock” (Akeso Biomedical, Inc., priority 2015, dated 2020).

The test system of one data set is Campylobacter jejuni. Put plainly: Campylobacter carriage in chickens after oral challenge, caecal contents at day 35 (Example 9). The class given is in vivo. The note with it: 340 μM in the drinking water. As to the method:
A study was performed to evaluate reduction of Campylobacter carriage in chickens using ferric lactate in one treatment group, and FeQ (Q-PLEX) in a second treatment group. A third treatment group served as a positive control. The ferric lactate and FeQ were administered to the treatment groups at a concentration of 340 μM in the drinking water. Each treatment group comprised 12 birds per pen. All three treatment groups were orally challenged with 10^5 cfu of Campylobacter jejuni at day 14 of the trial. At day 35 all birds were euthanized, and quantitative bacteriology performed on caecal contents.

In another data set the test system is E. coli. Nature of the data set: Faecal E. coli counts in weaner pigs (Example 7). In kind it is in vivo. The note with it: 0.2 g/L in drinking water; one male pig per pen. From the text:
(§1) Faeces, cleanliness and health scores was taken daily (Appendix). Faecal scores especially are indicative of diarrhea incidence, and are used in the industry as a general easy to observe gut health indicator. […] Faecal samples were stored under conditions allowing submission to SAC Veterinary Services for quantification of lactobacilli and coliforms, and their ratio (L:C ratio). These are used as key indicators for gut health, with a greater L:C ratio being indicative to better gut health.

For data set [1], the system named is Pseudomonas aeruginosa PAO-1 strain.
Description: Pseudomonas aeruginosa PAO-1 strain was routinely grown on either LB (Luria-Bertani, Oxoid, UK) agar plates at 37° C. or in broth at 37° C. with 200 rpm shaking. UV-sterilized glass slides were incubated in either 15 mL RPMI-1640 defined medium (Sigma, UK) or 15 mL RPMI-1640 with Fe-Lac inoculated with diluted (OD600=0.01) bacteria from overnight cultures at 37° C. with 60 rpm shaking for 72 hours. The slides were removed from bacterial culture and washed with 15 mL phosphate buffered saline at room temperature for 5 minutes three times and then rinsed with distilled H2O. After washing, the slides were stained with 20 μM SYTO17 dye (Invitrogen, UK) at room temperature for 30 minutes. After removing excess staining dye and air-drying, the samples were examined using a Carl Zeiss LSM 700 Laser Scanning Microscope with ZEN 2009 imaging software (Carl Zeiss, Germany). The coverage rate of bacteria on the surface was analysed using open source Image J 1.44 software (National Institute of Health, US).
Pseudomonas aeruginosa PAO-1 strain was routinely grown on either LB (Luria-Bertani, Oxoid, UK) agar plates at 37° C. or in broth at 37° C. with 200 rpm shaking. UV-sterilized glass slides were incubated in either 15 mL RPMI-1640 defined medium (Sigma, UK) or 15 mL RPMI-1640 with Fe-Cit inoculated with diluted (OD600=0.01) bacteria from overnight cultures at 37° C. with 60 rpm shaking for 72 hours. The slides were removed from bacterial culture and washed with 15 mL phosphate buffered saline at room temperature for 5 minutes three times and then rinsed with distilled H2O. After washing, the slides were stained with 20 μM SYTO17 dye (Invitrogen, UK) at room temperature for 30 minutes. After removing excess staining dye and air-drying, the samples were examined using a Carl Zeiss LSM 700 Laser Scanning Microscope with ZEN 2009 imaging software (Carl Zeiss, Germany). The coverage rate of bacteria on the surface was analysed using open source Image J 1.44 software (National Institute of Health, US).
Pseudomonas aeruginosa PAO-1 strain was routinely grown on either LB (Luria-Bertani, Oxoid, UK) agar plates at 37° C. or in broth at 37° C. with 200 rpm shaking. […] The slides were removed from bacterial culture and washed with 15 mL phosphate buffered saline at room temperature for 5 minutes three times and then rinsed with distilled H2O. After washing, the slides were stained with 20 μM SYTO17 dye (Invitrogen, UK) at room temperature for 30 minutes. After removing excess staining dye and air-drying, the samples were examined using a Carl Zeiss LSM 700 Laser Scanning Microscope with ZEN 2009 imaging software (Carl Zeiss, Germany). The coverage rate of bacteria on the surface was analysed using open source Image J 1.44 software (National Institute of Health, US).
Pseudomonas aeruginosa PAO-1 strain was routinely grown on either LB (Luria-Bertani, Oxoid, UK) agar plates at 37° C. or in broth at 37° C. with 200 rpm shaking. UV-sterilized glass slides were incubated in either 15 mL RPMI-1640 defined medium (Sigma, UK) or 15 mL RPMI-1640 with Fe-Gly inoculated with diluted (OD600=0.01) bacteria from overnight cultures at 37° C. with 60 rpm shaking for 72 hours. The slides were removed from bacterial culture and washed with 15 mL phosphate buffered saline at room temperature for 5 minutes three times and then rinsed with distilled H2O. […] The coverage rate of bacteria on the surface was analysed using open source Image J 1.44 software (National Institute of Health, US).
For data set [2] the following is noted: 0.2 g/L in drinking water; weaner pigs.
Description: Animal Details • Number of treatments: 4 treatments • Number of replicates: 4 pens • Number of animals per pen: 4 pigs (balanced for sex as much as possible) • Number of pens in study: 16 pens • Animal species and breed: newly weaned pigs (Large White×Landrace) • Total number of animals: 64
There were four (4) treatments, each having 4 replicate pens with 4 pigs per replicate pen, i.e. 16 pigs per treatment or 64 pigs in total.
The feeds used were standard commercial, non-medicated feeds, tailored for weaner pigs. The feeds were offered as a 3 mm pellet and ad libitum. Water will also be available ad libitum.
The Ethology 3 building of SRUC's Easter Howgate Pig Unit were used in this study. This house consists of 6 rooms, each with 4 pens, so holds up to 24 pens of 4 m^2 each; for this study, 4 rooms were used. The animal house, which is an environmentally controlled building, were sanitized prior to use and between rounds. Pigs were placed at weaning on a thick layer of fresh white wood shavings or straw in pens. Pens were balanced as much as possible for litter origin and sex (2 intact males and 2 females). Pens were bedded with additional sawdust or straw as required, and were equipped with a single feeder and nipple drinker. Foods were available ad libitum throughout. Water were supplied via measured bottles per pen, and also available. Environmental temperature were maintained at 26° C. for the first 4 days after weaning and then decreased by 2° C. for the remainder of the experiment. Lights were on from 08:00 am till 18:00 μm and night-lights maintained between 18:00 μm and 08:00 am.
Pigs were individually weighed at day 0, 6 and 13. Pigs removed or found dead weighed, and date noted.
The volume of feed offered per pen was recorded daily from day 0 until day 12, inclusive. Feed refusals were recorded daily from day 1 until day 13, inclusive.
Pig weights, feed offered and feed refusals were used to determine averaged daily weight gain, daily feed intake and feed conversion ratio, over day 0 to 6, 6 to 13, as well as 0 to 13.
From day 0 until day 13, the volume of water offered per pen was recorded daily and water levels were recorded from the water bottles prior to morning feeding before tupping up.
Data gathered were analyzed using analysis of variance (ANOVA), to test for the effect of Fe-complex provision per se and Fe-complex type. Treatments were allocated in blocks within Ethology 3, as each of the four proposed treatments were in each of the four rooms used. As such, rooms were used as block in the model. Effects were considered significant at P<0.05.
The next data set deals with lactobacilli. Nature of the data set: Faecal lactobacilli counts and L:C ratio in weaner pigs (Example 7). The class given is in vivo. The note with it: 0.2 g/L in drinking water; one male pig per pen.
Description: as §1

Data set [3] relates to Campylobacter jejuni NCTC 11168. Nature of the data set: Biofilm formation on plastic coated UV beads (Example 6). The settings on record: Fe-Tart and Fe-Cit at 50, 100, and 300 μM; FeQ (QPLEX) at 300.
A short description of data set [4]: Zootechnical efficacy of ferric citrate in milk replacer for rearing calves: body weight, feed intake, gain, FCR (Example 11). The class given is in vivo, rearing calves (German Holstein). The settings on record: milk replacer: T1 Fe(II) sulfate 85 g Fe/tonne, T2 plus ferric citrate 500 g/tonne feed. The method, then: The composition of the basal calf milk replacer is shown in Table 36, and the feeding schedule in Table 37.
The milk replacer was dissolved in warm water at around 50° C. The concentration was 125 grams per liter. The drinking temperature was kept at 38 to 40° C.
Additionally, a commercial calf starter feed (mash) without phytogenics, probiotics, organic acids or enzymes was provided. Straw was also provided in pre-weighed amounts throughout the 56 day feeding period.

The nature of data set [5]: Calf health scoring: body temperature, faeces quality, coughing, nasal discharge, antibiotic treatments (Example 11). The method, then: A study was performed to evaluate the potential of ferric citrate (CI-PLEX™ CHELATE) to improve calf health, welfare, and performance. A total of 80 rearing calves (German Holstein) were used from d 12 to d 68 of age. 40 calves were fed a basal milk replacer (T1 Control). For comparison, 40 calves were fed the basal milk replacer with addition of ferric (III) citrate (T2 CI-PLEX™ CHELATE, 500 g/tonne feed) with a microtracer present at a rate of 10%, equivalent to 50 g/tonne for product identification purposes only. The basal milk replacer was supplemented with ferrous (II) sulfate at normal commercial rates (supplying 85 g Fe/tonne feed). T2 was also supplemented with normal commercial practice of Fe (ferrous (II) sulfate at 85 g Fe/tonne feed) with Fe at 85 g/tonne feed from the ferric (III) citrate (CI-PLEX™ CHELATE). […] The basal milk replacer batch was produced, and then split into 2 aliquots prior to adding the different inorganic or organic Fe sources to T1, and T2 diets. Calves were housed in rearing units, each unit with pens on either side of a central aisle.
The following parameters were measured: mean pen body weight (BW), feed intake (FI), body weight gain (BWG), feed conversion ratio (FCR, feed:gain) at study start and on days 7, 14, 21, 28, 35, 42, 49 and 56 days on trial. In addition, the following were also recorded: body temperature, faeces quality, coughing score, and nasal discharge.
The scoring of faecal consistency and of rectal temperature, coughing, nasal discharge as well as eye and ear scores were ranked daily.

[6] abbreviates: Score 0: normal, 1: slightly disorder, 2: middle disorder, 3: severe disorder.

Structures are written as SMILES. Read-outs that look alike come from different tables or passages of the source. Marks after values point to notes of the source that are not given here.

On to `CC(O)C(=O)O.CC(O)C(=O)O.CC(O)C(=O)O.[Fe]` (centres unmarked) [Fe-Lac, ferric lactate], for which the “levels of Campylobacter in caeca at day 35, comparison between treatments (FIG. 11)” value in the data set with Campylobacter jejuni is reported as “lowest levels”. For the same compound, the “levels of Campylobacter in caeca at day 35 compared with positive control (FIG. 11)” value in the data set with Campylobacter jejuni (oral challenge at day 14) is on record as “lower levels of Campylobacter in their caeca”. Moreover, in the data set with E. coli, the “Faecal E. coli counts, day 0 post weaning” value was 8.40 10log cfu/g; the “Faecal E. coli counts, day 4 post weaning” value was 7.80 10log cfu/g; the “Faecal E. coli counts, day 7 post weaning” value is 6.37 10log cfu/g; the “Faecal E. coli counts, day 14 post weaning” value was 5.98 10log cfu/g. In addition, the “biofilm formation (coverage rate on glass slide), dispersion effect (FIG. 5B)” value in data set [1] (10, 50, and 100 μM) is given as “inhibits the formation of biofilm”. Further, in data set [1] (50, 100, and 300 μM, 72 hours), the “biofilm formation (coverage rate on glass slide), titration effect (FIG. 5A)” value is on record as “inhibits the formation of biofilm”. Also, in data set [2], the “Averaged body weight gain, days 0 to 4 post weaning” value is recorded as 153 g/day/pig; the “Averaged body weight gain, days 0 to 7 post weaning” value is given as 172 g/day/pig; the “Averaged body weight gain, days 0 to 14 post weaning” value is recorded as 380 g/day/pig; the “Averaged body weight gain, days 4 to 7 post weaning” value is 197 g/day/pig. Besides, in data set [2], the “Averaged body weight gain, days 7 to 14 post weaning” value was 587 g/day/pig; the “Averaged daily feed intake, days 0 to 4 post weaning” value was 154 g/day/pig; the “Averaged daily feed intake, days 0 to 7 post weaning” value turned out to be 223 g/day/pig; the “Averaged daily feed intake, days 0 to 14 post weaning” value was found to be 378 g/day/pig. Also, in data set [2], the “Averaged daily feed intake, days 4 to 7 post weaning” value worked out at 315 g/day/pig; the “Averaged daily feed intake, days 7 to 14 post weaning” value was 532 g/day/pig; the “Body weights, day 0 post weaning” value is 9.74 kg/pig; the “Body weights, day 4 post weaning” value is recorded as 10.35 kg/pig. In addition, in data set [2], the “Body weights, day 7 post weaning” value is 10.94 kg/pig; the “Body weights, day 14 post weaning” value was 15.05 kg/pig; the “Feed conversion ratio, days 0 to 4 post weaning” value came out at 0.54 g/g; the “Feed conversion ratio, days 0 to 7 post weaning” value is listed as 2.67 g/g. Besides, in data set [2], the “Feed conversion ratio, days 0 to 14 post weaning” value was determined as 1.00 g/g and the “Feed conversion ratio, days 7 to 14 post weaning” value is 0.91 g/g. Besides, in the data set on lactobacilli, the “Faecal lactobacilli counts, day 0 post weaning” value is 8.68 10log cfu/g; the “Faecal lactobacilli counts, day 4 post weaning” value is recorded as 8.76 10log cfu/g; the “Faecal lactobacilli counts, day 7 post weaning” value is given as 8.97 10log cfu/g; the “Faecal lactobacilli counts, day 14 post weaning” value is recorded as 8.77 10log cfu/g. In the data set on lactobacilli, the “Lactobacilli to E. coli ratio (L:C), day 0 post weaning” value was 1.03; the “Lactobacilli to E. coli ratio (L:C), day 4 post weaning” value was 1.08; the “Lactobacilli to E. coli ratio (L:C), day 7 post weaning” value is listed as 1.33; the “Lactobacilli to E. coli ratio (L:C), day 14 post weaning” value turned out to be 1.45.
For `O=C([O-])C(O)C(O)C(=O)[O-].O=C([O-])C(O)C(O)C(=O)[O-].O=C([O-])C(O)C(O)C(=O)[O-].[Fe+3].[Fe+3]` (centres unmarked) [Fe-Tart, ferric tartrate], in the data set on E. coli, the “Faecal E. coli counts, day 0 post weaning” value is 8.67 10log cfu/g; the “Faecal E. coli counts, day 4 post weaning” value is 6.42 10log cfu/g; the “Faecal E. coli counts, day 7 post weaning” value is recorded as 6.51 10log cfu/g; the “Faecal E. coli counts, day 14 post weaning” value is reported as 6.43 10log cfu/g. Further, in data set [1] (100 and 300 μM, 72 hours), the “biofilm formation (coverage rate on glass slide)” value is reported as “inhibits the formation of biofilm”. The “C. jejuni biofilm formation on plastic coated UV beads (FIG. 9)” value in data set [3] is listed as “inhibited C. jejuni biofilm formation”. Also, in the data set with lactobacilli, the “Faecal lactobacilli counts, day 0 post weaning” value is given as 8.84 10log cfu/g; the “Faecal lactobacilli counts, day 4 post weaning” value is recorded as 8.94 10log cfu/g; the “Faecal lactobacilli counts, day 7 post weaning” value is 9.48 10log cfu/g; the “Faecal lactobacilli counts, day 14 post weaning” value is recorded as 8.79 10log cfu/g.
On to `O=S(=O)([O-])[O-].[Fe+2]` [Fe (II)sulfate], for which, in data set [4], the “ADFI 1-21 d of rearing” value was found to be 804 ± 38 g, the “ADFI 1-56 d of rearing” value came out at 1.49 ± 0.02 kg, the “ADFI 22-56 d of rearing” value came out at 1.90 ± 0.02 kg and the “ADG 1-21 d of rearing” value is given as 268 ± 30^a g. In addition, in data set [4], the “ADG 1-56 d of rearing” value is 723 ± 36^a g, the “ADG 22-56 d of rearing” value is listed as 792 ± 48^a g, the “FCR 1-21 d of rearing” value is listed as 1.339 ± 0.142^a feed:gain and the “FCR 1-56 d of rearing” value is given as 2.065 ± 0.100^a feed:gain. In data set [4], the “FCR 22-56 d of rearing” value was 2.408 ± 0.148^a feed:gain and the “Mean BW at d 56 of rearing” value was 91.9 ± 2.0^a kg. In data set [5] (setting [6]), the “Mean daily body temperature score 1-56 d of rearing” value was 0.09 ± 0.11^a, the “Mean daily coughing score 1-56 d of rearing” value was determined as 0.51 ± 0.13, the “Mean daily ear score 1-56 d of rearing” value was found to be 0.04 ± 0.07 and the “Mean daily eye score 1-56 d of rearing” value is 0.04 ± 0.07. Also, in data set [5] (setting [6]), the “Mean daily faecal score 1-56 d of rearing” value turned out to be 0.68 ± 0.14 and the “Mean daily nasal discharge score 1-56 d of rearing” value worked out at 0.44 ± 0.12. In addition, in data set [5] (bovine, in vivo), the “% excluded, 1-56 d of rearing” value is given as 0% and the “No calves excluded, 1-56 d of rearing” value is reported as 1. Further, the “No calves treated with antibiotics, 1-56 d of rearing” value in data set [5] (of 40 calves per treatment) stood at 3.
For the compound `NCC(=O)[O-].NCC(=O)[O-].NCC(=O)[O-].[Fe+3]` [Fe-Gly, Ferric glycinate], the “biofilm formation (coverage rate on glass slide)” value is “able to inhibit biofilm formation” in data set [1] (300 μM, 72 hours); “inhibits the formation of biofilm” in data set [1] (100 and 300 μM, 72 hours).
